Data reported in publication PMC9827630, “Intra-colony venom diversity contributes to maintaining eusociality in a cooperatively breeding ant” (BMC Biology, 2023).
Values joined by “and” are separate entries in the source; they are usually repeats but may differ in a detail not shown here. Equal values may be shown once. Where no end group is shown, it is not given here.

System: Candida albicans ATCC 90028
Experiment: Antifungal growth inhibition (CO-ADD)
Type: cell-based
Conditions: percentage growth inhibition, absorbance at 530 nm; mean ± SEM
Protocol: (§1) Antimicrobial and cytotoxicity assays were performed by CO-ADD (The Community for Antimicrobial Drug Discovery, Institute for Molecular Bioscience, The University of Queensland). […] Percentage growth inhibition was calculated using negative controls (media only) and positive controls (no peptide). For the hemolysis assays, human whole blood was washed three times with 3 volumes of 0.9% NaCl and then resuspended in 0.9% NaCl to a concentration of 0.5 × 10^8 cells/mL. Cells were incubated for 1 h at 37°C with or without the peptide. After incubation, plates were centrifuged at 1000 g for 10 min to pellet cells and debris and hemolysis determined by measuring the supernatant absorbance at 405 nm.

Substance	Max response ± SEM
ILPALIPVFASLLPWAIKKF-NH2 [Rm55b]	3 ± 0
RNVPRWFTPRL-NH2 [Rm52d]	2 ± 1

Same assay, conditions: sigmoidal dose-response fit of growth inhibition, absorbance at 530 nm

Substance	MIC
FWLKGGRGDG-NH2 [Rm53a/b]	>29 µM
ILPALIPVFASLLPWAIKKF-NH2 [Rm55b]	>14 µM
RNVPRWFTPRL-NH2 [Rm52d]	>22 µM

System: Cryptococcus neoformans var. grubii H99; ATCC 208821
Experiment: Antifungal growth inhibition (CO-ADD)
Type: cell-based
Conditions: percentage growth inhibition, difference in absorbance 600 and 570 nm after resazurin, 35°C 2 h; mean ± SEM
Protocol: as §1

Substance	Max response ± SEM
ILPALIPVFASLLPWAIKKF-NH2 [Rm55b]	86 ± 4
RNVPRWFTPRL-NH2 [Rm52d]	-13 ± 5

Same assay, conditions: sigmoidal dose-response fit of growth inhibition, resazurin read-out

Substance	MIC
FWLKGGRGDG-NH2 [Rm53a/b]	>29 µM
ILPALIPVFASLLPWAIKKF-NH2 [Rm55b]	11 µM
RNVPRWFTPRL-NH2 [Rm52d]	>22 µM

System: F11
Experiment: Ion permeability F11
Type: cell-based, mouse
Conditions: ions listed as permeant; - = none

Substance	ion permeability F11
ILPALIPVFASLLPWAIKKF-NH2 [Rm55b]	Ca2+,Na+,Th+

System: HAP1 cells
Experiment: Cell viability assay, resazurin
Type: cell-based
Conditions: not given
Protocol: In addition to the cytotoxicity assays performed by CO-ADD, we screened the synthetic peptides for toxicity in cell viability assays using HAP1, MM96L, and HEK293T cells. peptides were reconstituted in 100% DMSO then diluted in cell media (HAP1: IMDM (Sigma Aldrich) with 10% FBS and 1% Penicillin/Streptomycin (P/S); MM96L: RPMI (Gibco) with 10% FBS, 1% P/S and 1% GlutaMAX (Gibco); HEK293T: DMEM high glucose (Gibco), with 10% FBS and 1% P/S. Trypsinized cells ([…]) were seeded in each well of a 96-well plate. 0.01 to 1000 μM peptide was added to each well after 24 h, and the cells incubated for an additional 74 h. After incubation, the medium was aspirated from each well and 150 μL of fresh medium containing a 0.002% solution of resazurin (Sigma-Aldrich) was added to the wells and incubated for 4 h at 37 °C. The absorbance was measured at 570 nm using a microplate spectrophotometer (FLUOstar Omega, BMG Labtech, Germany). Percentage cell viability at concentrations of 10 and 100 μM peptide were compared with negative control by one-way ANOVA Dunnett’s multiple comparisons test (GraphPad Prism8).

Substance	Cytotoxicity to HAP cells
ILPALIPVFASLLPWAIKKF-NH2 [Rm55b]	cytotoxic to HAP cells

Same assay, conditions: 10 μM peptide, n = 3 per group

Substance	HAP cell viability
ILPALIPVFASLLPWAIKKF-NH2 [Rm55b]	significantly reduced HAP cell viability

System: Human red blood cells
Experiment: Hemolysis assay (CO-ADD)
Type: cell-based
Conditions: 1 h at 37°C, absorbance at 405 nm; sigmoidal dose-response fit
Protocol: as §1

Substance	HC50 (concentration at 50% hemolytic activity)
ILPALIPVFASLLPWAIKKF-NH2 [Rm55b]	7.4 µM

Same assay, conditions: hemolysis, washed human blood 0.5 × 10^8 cells/mL in 0.9% NaCl, 1 h at 37°C, supernatant absorbance at 405 nm; mean ± SEM

Substance	Max response ± SEM
ILPALIPVFASLLPWAIKKF-NH2 [Rm55b]	40 ± 3

System: Staphylococcus aureus ATCC 43300
Experiment: Antimicrobial growth inhibition (CO-ADD)
Type: cell-based
Conditions: percentage growth inhibition, absorbance at 600 nm; mean ± SEM
Protocol: as §1

Substance	Max response ± SEM
FWLKGGRGDG-NH2 [Rm53a/b]	5 ± 1 and 7 ± 2
ILPALIPVFASLLPWAIKKF-NH2 [Rm55b]	103 ± 1
RNVPRWFTPRL-NH2 [Rm52d]	12 ± 6

Same assay, conditions: sigmoidal dose-response fit of growth inhibition, absorbance at 600 nm

Substance	MIC
FWLKGGRGDG-NH2 [Rm53a/b]	>29 µM
ILPALIPVFASLLPWAIKKF-NH2 [Rm55b]	≤0.11 µM
RNVPRWFTPRL-NH2 [Rm52d]	>22 µM

System: Klebsiella pneumoniae ATCC 700603
Experiment: Antimicrobial growth inhibition (CO-ADD)
Type: cell-based
Conditions: percentage growth inhibition, absorbance at 600 nm; mean ± SEM
Protocol: as §1

Substance	Max response ± SEM
FWLKGGRGDG-NH2 [Rm53a/b]	5 ± 0
ILPALIPVFASLLPWAIKKF-NH2 [Rm55b]	12 ± 1
RNVPRWFTPRL-NH2 [Rm52d]	5 ± 0

Same assay, conditions: sigmoidal dose-response fit of growth inhibition, absorbance at 600 nm

Substance	MIC
FWLKGGRGDG-NH2 [Rm53a/b]	>29 µM
ILPALIPVFASLLPWAIKKF-NH2 [Rm55b]	>14 µM
RNVPRWFTPRL-NH2 [Rm52d]	>22 µM

System: Acinetobacter baumannii ATCC 19606
Experiment: Antimicrobial growth inhibition (CO-ADD)
Type: cell-based
Conditions: percentage growth inhibition, absorbance at 600 nm; mean ± SEM
Protocol: as §1

Substance	Max response ± SEM
FWLKGGRGDG-NH2 [Rm53a/b]	5 ± 1 and 4 ± 2
ILPALIPVFASLLPWAIKKF-NH2 [Rm55b]	98 ± 0
RNVPRWFTPRL-NH2 [Rm52d]	5 ± 2

Same assay, conditions: sigmoidal dose-response fit of growth inhibition, absorbance at 600 nm

Substance	MIC
FWLKGGRGDG-NH2 [Rm53a/b]	>29 µM
ILPALIPVFASLLPWAIKKF-NH2 [Rm55b]	14 µM
RNVPRWFTPRL-NH2 [Rm52d]	>22 µM

System: Escherichia coli ATCC 25922
Experiment: Antimicrobial growth inhibition (CO-ADD)
Type: cell-based
Conditions: percentage growth inhibition, absorbance at 600 nm; mean ± SEM
Protocol: as §1

Substance	Max response ± SEM
FWLKGGRGDG-NH2 [Rm53a/b]	4 ± 1 and 3 ± 1
ILPALIPVFASLLPWAIKKF-NH2 [Rm55b]	11 ± 1
RNVPRWFTPRL-NH2 [Rm52d]	1 ± 2

Same assay, conditions: sigmoidal dose-response fit of growth inhibition, absorbance at 600 nm

Substance	MIC
FWLKGGRGDG-NH2 [Rm53a/b]	>29 µM
ILPALIPVFASLLPWAIKKF-NH2 [Rm55b]	>14 µM
RNVPRWFTPRL-NH2 [Rm52d]	>22 µM

System: Pseudomonas aeruginosa ATCC 27853
Experiment: Antimicrobial growth inhibition (CO-ADD)
Type: cell-based
Conditions: percentage growth inhibition, absorbance at 600 nm; mean ± SEM
Protocol: as §1

Substance	Max response ± SEM
FWLKGGRGDG-NH2 [Rm53a/b]	12 ± 4 and 11 ± 5
ILPALIPVFASLLPWAIKKF-NH2 [Rm55b]	3 ± 1
RNVPRWFTPRL-NH2 [Rm52d]	7 ± 0

Same assay, conditions: sigmoidal dose-response fit of growth inhibition, absorbance at 600 nm

Substance	MIC
FWLKGGRGDG-NH2 [Rm53a/b]	>29 µM
ILPALIPVFASLLPWAIKKF-NH2 [Rm55b]	>14 µM
RNVPRWFTPRL-NH2 [Rm52d]	>22 µM

System: Human embryonic kidney cells ATCC CRL-1573
Experiment: Cytotoxicity assay (CO-ADD), resazurin
Type: cell-based
Conditions: percentage growth inhibition, resazurin fluorescence, 37°C 5% CO2; mean ± SEM
Protocol: as §1

Substance	Max response ± SEM
ILPALIPVFASLLPWAIKKF-NH2 [Rm55b]	98 ± 1

Same assay, conditions: resazurin fluorescence; sigmoidal dose-response fit

Substance	CC50 (concentration at 50% cytotoxicity)
ILPALIPVFASLLPWAIKKF-NH2 [Rm55b]	2.6 µM

System: F11 (mouse neuroblastoma × rat dorsal root ganglion (DRG) neuron hybrid) cells
Experiment: Calcium imaging of F11 cells (FLIPR)
Type: cell-based
Conditions: increase in [Ca2+]i, max-min fluorescence over 300 s; read-out: EC50 (F11 cells, Table S2)
Protocol: F11 (mouse neuroblastoma × rat dorsal root ganglion (DRG) neuron hybrid) cells were cultured as previously described. Cells were maintained on Ham’s F12 media supplemented with 10 % fetal bovine serum, 100 μM hypoxanthine, 0.4 μM aminopterin, and 16 μM thymidine (Hybri-MaxTM, Sigma Aldrich). 384-well imaging plates (Corning, Lowell, MA, USA) were seeded 48 h prior to imaging resulting in 90 – 95% confluence at imaging. Cells were incubated for 30 min with Calcium 4 assay component A, as per the manufacturer’s instructions (Molecular Devices, Sunnyvale, CA) in physiological salt solution (PSS; composition in mM: 140 NaCl, 11.5 D-glucose, 5.9 KCl, 1.4 MgCl2, 1.2 NaH2PO4, 5 NaHCO3, 1.8 CaCl2, 10 HEPES) at 37°C. […] Signals were read every second for 10 s before, and 300 s after, the addition of peptides in PSS supplemented with 0.1% bovine serum albumin. All data represent mean ± SEM of a representative assay in triplicate. Fluorescence changes on peptide addition were compared to addition of negative control solution (0.1% BSA in PSS). The resulting maximum-minimum fluorescence in the 300 s period after peptide addition was recorded as the response.

Substance	EC50
ILPALIPVFASLLPWAIKKF-NH2 [Rm55b]	4 µM

System: HEK
Experiment: Ion permeability HEK
Type: cell-based, Human
Conditions: ions listed as permeant; - = none

Substance	ion permeability HEK
ILPALIPVFASLLPWAIKKF-NH2 [Rm55b]	Ca2+,Na+,Th+

System: Female fruit flies (D. melanogaster strain Canton-S)
Experiment: Fruit fly injection assay (lethality, paralysis, climbing)
Type: in vivo, Drosophila melanogaster
Conditions: 5 nmol/g injected, climbing assay 5 min after injection; significant versus control
Protocol: Female fruit flies (D. melanogaster strain Canton-S) were injected four to six days post-emergence. Female flies were used because their larger size makes injection easier. Groups of eight female flies were assayed in triplicate for each dose tested. Injection needles were formed from glass capillary tubes (#3-000-203-G/X, Drummond, Birmingham, AL, USA) using a micropipette puller (Sutter Instrument Co. Model P-97), with the fine tip manually trimmed afterwards using scissors. Needles then were filled with mineral oil, connected to a Nanoliter 2000 microinjector ([…], Bensenville, IL USA) equipped with a foot pedal, and ~1 μL of peptide solution or water aspirated. Each group of flies were immobilized by cooling for approximately 2 min on ice, and then decanted on the top of the ‘injection stage’, a petri dish filled with ice. Under a dissecting microscope, each fly was carefully impaled on the lateral thorax behind the wing, and 50.6 nL of venom peptide or water was injected. After injection, each group of flies were returned to their 5 mL plastic tube at room temperature and their behavior observed.

Substance	Motor behavior (climbing assay)
ILPALIPVFASLLPWAIKKF-NH2 [Rm55b]	disrupted motor behavior

System: panel of microbes
Experiment: Antimicrobial screening, summary over the panel of microbes
Type: cell-based
Conditions: all strains of the panel (for Rm54a and Rm55a: strains other than S. aureus)
Protocol: as §1

Substance	Growth inhibition over the microbial strains examined
FWLKGGRGDG-NH2 [Rm53a/b]	no inhibitory activity
RNVPRWFTPRL-NH2 [Rm52d]	no inhibitory activity
